The target in assay [1] is T1, hRIPK1 (aa 1-375) fusion protein (Homo sapiens, UniProt Q13546).
T1 construct: hRIPK1 (aa 1-375) fusion protein
T1 sequence (Q13546 1-375): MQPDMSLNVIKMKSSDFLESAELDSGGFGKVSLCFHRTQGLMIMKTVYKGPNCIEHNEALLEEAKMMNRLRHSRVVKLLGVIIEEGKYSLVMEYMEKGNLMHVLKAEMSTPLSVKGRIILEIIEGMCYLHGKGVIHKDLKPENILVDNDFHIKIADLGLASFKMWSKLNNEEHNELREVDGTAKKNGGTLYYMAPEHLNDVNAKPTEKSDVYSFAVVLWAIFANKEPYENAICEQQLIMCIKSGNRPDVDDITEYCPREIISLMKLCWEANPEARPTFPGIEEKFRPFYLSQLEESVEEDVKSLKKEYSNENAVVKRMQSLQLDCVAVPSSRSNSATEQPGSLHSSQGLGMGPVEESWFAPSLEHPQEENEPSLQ
As to the kind of experiment: ADP-Glo kinase assay: catalytic activity of RIPK1 (autophosphorylation, conversion of ATP to ADP). The format is biochemical. Here is the method:
The catalytic activity of RIPK1 was measured by monitoring the conversion of Adenosine triphosphate (ATP) to Adenosine diphosphate (ADP) due to autophosphorylation using an ADP-Glo kinase kit (Promega, catalog no. V9104).
In detail, 2 μl recombinantly produced hRIPK1 (aa 1-375) fusion protein (end concentration 3.6 μg/ml) and 2 μl compound (end concentration 33300-1.69 nM; DMSO end concentration 1%) were incubated for 30 minutes at room temperature and then 2 μl ATP (ADP Glo kit, end concentration 50 μM) were added. After another 240 minutes incubation at room temperature, 5 μl Promega ADP-Glo reagent I was added to quench the reaction and deplete unconsumed ATP. After an incubation period of 30 minutes, 10 μl Promega ADP-Glo detection reagent II was added resulting in conversion of ADP to ATP, which generates a light-reaction between luciferase and luciferin. Luminescence was quantified after 30 minutes with a Pherastar FS (BMG LABTECH, Ortenberg).
The adjustment was obtained by nonlinear regression using the Levenberg Marquardt algorithm.
(In general: ADP-Glo turns the ADP formed in a reaction into a luminescent signal.)

Assay [2] concerns U937 cells. Nature of the assay: Cellular assay in U937 cells: activity of RIPK1 inhibitors on TNFα/zVAD.fmk-induced cell death (necroptosis), CellTiter 96 AQueous (MTS) readout. The format is cell-based. The note with it: Homo sapiens, U-937. The source says: Upon TNF-Receptor I ligation, Ser/Thr kinase RIPK1 is recruited to a transient receptor complex 1. Upon modification of RIPK1 which promotes activation of RIPK1, complex IIb can form, that involves recruitment of RIPK3 and MLKL (mixed lineage-kinase domain-like protein) which then translocates from the cytosol to the plasma membrane to execute cell death (Cai, Z. et al, Nat. Cell Biol. (2014) 16:55-65).
Cell death was quantified in 96 well plates by determination of the amount of live cell using a CellTiter 96 AQueous reagent (Promega), a calorimetric method to measure the number of live cells by reducing tetrazolium compound [3-(4,5-dimethylthiazol-2-yl)-5-(3-carboxymethoxyphenyl)-2-(4-sulfophenyl)-2H-tetrazolium, inner salt; MTS] into formazan. Absorbance of formazan was read at 490 nm. The inhibitory activity of the test compound was quantified in a concentration response curve (CRC) experiment.
Compounds were obtained as 10 mM stock solutions and were diluted 1 to 10 volumes with DMSO to yield a 1 mM solution. From this solution 2 μl were diluted with 998 μl growth medium. 100 μl of 2 μM compound solution was further diluted sequentially with a dilution factor of 2.5 by adding 150 μl growth medium. A total of 10 concentrations were tested ranging from 10 μM to 0.26 nM or from 1 μM to 0.07 nM.
U937 cells were cultured in RPMI1640 Glutamax and 10% heat inactivated FBS. 50 μl cell suspension containing 1×10^6 cells/ml supplemented with 50 μM zVAD.fmk (Benzyloxycarbonyl-Val-Ala-Asp (OMe) fluoromethylketone) and 100 ng/ml recombinant human TNF[…] were dispensed in each well of a 96-well plate. 50 μl of compound dilutions (described in Cellular assay in U937 cells) were added and the cell suspension incubated overnight (18 to 24 hrs) at 37° C., 5% CO2 in a humidified atmosphere (95% rH). High (no compound) and low control (no TNF[…], zVAD.fmk) were tested with 7 replicates; all compound concentrations were tested in duplicates on each experimental plate.
CellTiter 96 Aqueous reagent was mixed (100 μl PMS (phenazine methosulfate) solution/2 ml MTS (3-(4,5-[…])-5-(3-carboxymethoxyphenyl)-2-(4-sulfophenyl)-2H-tetrazolium, inner salt) solution) and 20 μl were added per well. After 4 hrs incubation at 37° C. (5% CO2 95% rH) optical density was measured at 490 nm on a microplate reader (Tecan Infinite M1000).
The % inhibition is expressed as percentage of the maximal inhibition value obtained in the absence of TNFα/zVAD.fmc.

For orientation: IC50 means the concentration that gives 50% inhibition. A higher IC50 goes with weaker potency in that assay.

With `Cc1ncc(C[C@H]2CC[C@H](C(=O)N3OCC[C@H]3c3cnc(C)c(F)c3)CC2)c(C)n1` [compound 393, [4-[(2,4-dimethylpyrimidin-5-yl)methyl]cyclohexyl]-[(3S)-3-(5-fluoro-6-methylpyridin-3-yl)-1,2-oxazolidin-2-yl]methanone], the IC50 in assay [1] amounted to 51 nM; in assay [2], 33 nM.
On the same counts, the results for `Cc1nc(C[C@H]2CC[C@H](C(=O)N3OCC[C@H]3c3cc(F)cc(C#N)c3)CC2)cs1` [compound 239, trans-3-fluoro-5-[(3S)-2-[4-[(2-methylthiazol-4-yl)methyl]cyclohexanecarbonyl]isoxazolidin-3-yl]benzonitrile] are 27 nM and 5 nM.
On to `COc1cncc([C@@H]2CCON2C(=O)[C@H]2CC[C@H](Cn3ncc4ccc(C#N)cc43)CC2)n1` [compound 190, trans-1-[[4-[(3S)-3-(6-methoxypyrazin-2-yl)isoxazolidine-2-carbonyl]cyclohexyl]methyl]indazole-6-carbonitrile], for which the IC50 in assay [1] came out at 13 nM; in assay [2], 4 nM.
The matching figures for `CNC(=O)c1ccc(F)c(C[C@H]2CC[C@H](C(=O)N3OCC[C@H]3c3ccc(F)cc3)CC2)c1` [compound 173, trans-4-fluoro-3-[[4-[(3S)-3-(4-fluorophenyl)isoxazolidine-2-carbonyl]cyclohexyl]methyl]-N-methyl-benzamide]: 18 nM and 17 nM.
On the same counts, the results for `Cc1cn2nc(C[C@H]3CC[C@H](C(=O)N4OCC[C@H]4c4cc(F)cc(F)c4)CC3)c(C)cc2n1` [compound 293, trans-[(3S)-3-(3,5-difluorophenyl)isoxazolidin-2-yl]-[4-[(2,7-dimethylimidazo[1,2-b]pyridazin-6-yl)methyl]cyclohexyl]methanone] are 14 nM and 3 nM.
The matching figures for `Cc1c(C#N)ncn1C[C@H]1CC[C@H](C(=O)N2OCC[C@H]2c2cc(F)cc(F)c2)CC1` [compound 91, trans-1-((4-((S)-3-(3,5-difluorophenyl)isoxazolidine-2-carbonyl)cyclohexyl)methyl)-5-methyl-1H-imidazole-4-carbonitrile]: 39 nM and 67 nM.
For the compound `NC(=O)c1cnc2cnn(C[C@H]3CC[C@H](C(=O)N4OCC[C@H]4c4cc(F)cc(F)c4)CC3)c2c1` [compound 79, trans-1-((4-((S)-3-(3,5-difluorophenyl)isoxazolidine-2-carbonyl)cyclohexyl)methyl)-1H-pyrazolo[4,3-b]pyridine-6-carboxamide], the IC50 in assay [1] stood at 22 nM; in assay [2] it was 13 nM.
The matching figures for `CNC(=O)c1cc(F)cc(C[C@H]2CC[C@H](C(=O)N3OCC[C@H]3c3cc(F)cc(F)c3)CC2)c1` [compound 161, trans-3-[[4-[(3S)-3-(3,5-difluorophenyl)isoxazolidine-2-carbonyl]cyclohexyl]methyl]-5-fluoro-N-methyl-benzamide]: 4 nM and 1 nM.
On the same counts, the results for `N#Cc1cc(F)cc([C@@H]2CCON2C(=O)[C@H]2CC[C@H](Cn3ccc4ncc(OCC5CC5)cc43)CC2)c1` [compound 152, trans-3-[(3S)-2-[4-[[6-(cyclopropylmethoxy)pyrrolo[3,2-b]pyridin-1-yl]methyl]cyclohexanecarbonyl]isoxazolidin-3-yl]-5-fluoro-benzonitrile] are 7 nM and 3 nM.
On the same counts, the results for `Cc1cn2cc(C[C@H]3CC[C@H](C(=O)N4OCC[C@H]4c4cc(F)cc(C#N)c4)CC3)ccc2n1` [compound 225, trans-3-fluoro-5-[(3S)-2-[4-[(2-methylimidazo[1,2-a]pyridin-6-yl)methyl]cyclohexanecarbonyl]isoxazolidin-3-yl]benzonitrile] are 19 nM and 7 nM.
For `N#Cc1ccc2cnn(C[C@H]3CC[C@H](C(=O)N4OCC[C@H]4c4cc(F)cc(F)c4)CC3)c2c1` [compound 29, trans-1-((4-((S)-3-(3,5-difluorophenyl)isoxazolidine-2-carbonyl)cyclohexyl)methyl)-1H-indazole-6-carbonitrile], the figures for the IC50 in assay [1] and in assay [2] were 12 nM and 1 nM, respectively.
The matching figures for `O=C([C@H]1CC[C@H](Cc2ccc3ncnn3c2)CC1)N1OCC[C@H]1c1cnccn1` [compound 143, trans-[(3S)-3-pyrazin-2-ylisoxazolidin-2-yl]-[4-([1,2,4]triazolo[1,5-a]pyridin-6-ylmethyl)cyclohexyl]methanone]: 76 nM and 44 nM.
On the same counts, the results for `Cc1ccc([C@@H]2CCON2C(=O)[C@H]2CC[C@H](Cc3cc(C)ncc3F)CC2)cn1` [compound 386, trans-[4-[(5-fluoro-2-methylpyridin-4-yl)methyl]cyclohexyl]-[(3S)-3-(6-methylpyridin-3-yl)-1,2-oxazolidin-2-yl]methanone] are 25 nM and 13 nM.
On the same counts, the results for `Cc1ccc(C[C@H]2CC[C@H](C(=O)N3OCC[C@H]3c3cnccn3)CC2)nn1` [compound 357, trans-[4-[(6-methylpyridazin-3-yl)methyl]cyclohexyl]-[(3S)-3-pyrazin-2-ylisoxazolidin-2-yl]methanone] are 138 nM and 531 nM.
On to `N#Cc1cc(F)cc([C@@H]2CCON2C(=O)[C@H]2CC[C@H](Cc3cncc(F)c3)CC2)c1` [compound 148, trans-3-fluoro-5-[(3S)-2-[4-[(5-fluoro-3-pyridyl)methyl]cyclohexanecarbonyl]isoxazolidin-3-yl]benzonitrile], for which the IC50 was determined as 18 nM in assay [1] and 4 nM in assay [2].
For the compound `COc1cncc([C@@H]2CCON2C(=O)[C@H]2CC[C@H](Cn3ncc4ccc(C(N)=O)cc43)CC2)n1` [Compound 201, trans-1-[[4-[(3S)-3-(6-methoxypyrazin-2-yl)isoxazolidine-2-carbonyl]cyclohexyl]methyl]indazole-6-carboxamide], the IC50 in assay [1] worked out at 62 nM; in assay [2], 190 nM.
On the same counts, the results for `O=C([C@H]1CC[C@H](Cc2cncc(F)c2)CC1)N1OCC[C@H]1c1cnccn1` [compound 147, trans-[4-[(5-fluoro-3-pyridyl)methyl]cyclohexyl]-[(3S)-3-pyrazin-2-ylisoxazolidin-2-yl]methanone] are 27 nM and 40 nM.
On the same counts, the results for `Cc1nc2ccc(C[C@H]3CC[C@H](C(=O)N4OCC[C@H]4c4cc(F)cc(F)c4)CC3)cn2n1` [compound 223, trans-[(3S)-3-(3,5-difluorophenyl)isoxazolidin-2-yl]-[4-[(2-methyl-[1,2,4]triazolo[1,5-a]pyridin-6-yl)methyl]cyclohexyl]methanone] are 19 nM and 5 nM.
On the same counts, the results for `Cc1nn(C[C@H]2CC[C@H](C(=O)N3OCC[C@H]3c3cc(F)cc(C#N)c3)CC2)c2cc(C#N)c(F)cc12` [compound 85, trans-1-((4-((S)-3-(3-cyano-5-fluorophenyl)isoxazolidine-2-carbonyl)cyclohexyl)methyl)-5-fluoro-3-methyl-1H-indazole-6-carbonitrile] are 21 nM and 3 nM.

The values are drawn from patent publication US20260158009A1 (GENZYME CORPORATION, priority 2023, published 2026).
